27 compounds from patent US9056865B2, “Pyridine-2-derivatives as smoothened receptor modulators” (Pfizer Inc., priority 2010, dated 2015) can be followed below.

For assay [1], the system named is Gli-Luc/MEF cells. Kind of assay: Gli-Luc/MEF assay. The assay is classed as cell-based, mouse. The conditions noted are these: Shh-stimulated luciferase, 48 hours. The method in brief:
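Shh-stimulated luciferase readout (Bright-Glo) after 48 h, 37 °C, 5% CO2, used to derive IC50 of inhibition. Gli-Luc transgenic mouse MEFs received test compounds at final […] in 3-fold dilutions, with recombinant mouse Shh added immediately at final 2 μg/mL.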

Assay [2] has as its target human Smo (Homo sapiens (Human), UniProt Q99835). The assay can be described thus: Smo radioligand competition binding assay. Conditions: for inhibition at 0.05 µM: read-out: Smo % inh. @ 0.05 μM. The method in brief: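 Membranes from HEK293 cells expressing surface human Smo 181-781 (40 μg protein/well) incubated 2 h at room temperature with test compound and tritiated Smo antagonist (3 nM), pH 7.5 Tris buffer; filtration and scintillation counting. Non-specific binding defined with 30 μM cold antagonist; IC50 from four-parameter sigmoidal fit.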
On the technique in general: Displacement assays read how much labelled ligand stays bound in the presence of the test substance.

Sequence of human Smo (Q99835 181-787): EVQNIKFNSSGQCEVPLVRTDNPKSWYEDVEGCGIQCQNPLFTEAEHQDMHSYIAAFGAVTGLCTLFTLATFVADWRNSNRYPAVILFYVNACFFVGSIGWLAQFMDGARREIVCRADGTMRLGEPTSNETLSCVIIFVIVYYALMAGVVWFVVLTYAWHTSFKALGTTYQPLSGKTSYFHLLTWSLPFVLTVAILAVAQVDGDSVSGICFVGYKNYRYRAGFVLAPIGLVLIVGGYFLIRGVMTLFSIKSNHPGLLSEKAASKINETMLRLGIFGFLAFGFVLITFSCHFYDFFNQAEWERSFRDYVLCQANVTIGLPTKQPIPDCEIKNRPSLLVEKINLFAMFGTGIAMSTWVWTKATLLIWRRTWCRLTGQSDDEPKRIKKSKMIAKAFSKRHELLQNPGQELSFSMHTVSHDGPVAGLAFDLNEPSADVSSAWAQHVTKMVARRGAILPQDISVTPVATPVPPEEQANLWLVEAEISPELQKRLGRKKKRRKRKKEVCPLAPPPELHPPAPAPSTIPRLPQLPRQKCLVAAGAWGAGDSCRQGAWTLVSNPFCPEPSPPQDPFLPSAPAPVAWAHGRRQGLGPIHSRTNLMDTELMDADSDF

In the case of `Cc1cccnc1-c1cc(N2CCC(C(=O)N(C)[C@@H]3CS(=O)(=O)C[C@H]3O)CC2)ncc1Cl` [Example A-70, 1-(5′-chloro-3-methyl-2,4′-bipyridin-2′-yl)-N-[(3S,4S)-4-hydroxy-1,1-dioxidotetrahydro-3-thienyl]-N-methylpiperidine-4-carboxamide], the IC50 in assay [1] (Mus musculus, MEF) amounted to 0.0273 µM; in assay [2] it was 0.0424 µM. The inhibition at 0.05 µM in assay [2] (0.05 μM test compound) was found to be 105%.
Consider `Cc1cccnc1-c1nc(N2CCN(S(C)(=O)=O)CC2)ncc1Cl` [Example A-33, 5-chloro-4-(3-methylpyridin-2-yl)-2-[4-(methylsulfonyl)piperazin-1-yl]pyrimidine], for which the IC50 turned out to be 0.113 µM in assay [1] (Mus musculus, MEF) and 0.172 µM in assay [2]. Further, the inhibition at 0.05 µM in assay [2] (0.05 μM test compound) was 76.9%.
Taken in the same sequence, the figures for `Cc1cccnc1-c1cc(N2CCC(C(=O)N3CCCC(O)C3CO)CC2)ncc1Cl` (stereo not drawn) [Example A-86, 1-{[1-(5′-chloro-3-methyl-2,4′-bipyridin-2′-yl)piperidin-4-yl]carbonyl}-2-(hydroxymethyl)piperidin-3-ol] were 0.116 µM, 0.112 µM and 81.5%.
Regarding `Cc1cccnc1-c1cc(N2CCC(C(=O)NC[C@H]3CCCO3)CC2)ncc1Cl` [Example A-63, 1-(5′-chloro-3-methyl-2,4′-bipyridin-2′-yl)-N-[(2R)-tetrahydrofuran-2-ylmethyl]piperidine-4-carboxamide], the IC50 turned out to be 0.0836 µM in assay [1] (Mus musculus, MEF) and 0.137 µM in assay [2]. The inhibition at 0.05 µM in assay [2] (0.05 μM test compound) stood at 82.5%.
On the same counts, the results for `Cc1cnc(-c2c(Cl)cnc(N3CCC(NC(=O)CCS(C)(=O)=O)CC3)c2F)c(C)c1` [Example A-139, N-(1-(5′-chloro-3′-fluoro-3,5-dimethyl-2,4′-bipyridin-2′-yl)piperidin-4-yl)-3-(methylsulfonyl)propanamide] are 0.00196 µM, 0.0178 µM and 101%.
On the same counts, the results for `Cc1cnc(-c2cc(N3CCN(C(=O)CN(C)C)CC3)ncc2Cl)c(C)c1` [Example A-105, 2-[4-(5′-chloro-3,5-dimethyl-2,4′-bipyridin-2′-yl)piperazin-1-yl]-N,N-dimethyl-2-oxoethanamine] are 0.0123 µM, 0.0824 µM and 84.5%.
As for `Cc1cc(F)cnc1-c1cc(N2CCN(S(=O)(=O)CCO)CC2)ncc1Cl` [Example A-150, 2-{[4-(5′-chloro-5-fluoro-3-methyl-2,4′-bipyridin-2′-yl)piperazin-1-yl]sulfonyl}ethanol], the IC50 in assay [1] (Mus musculus, MEF) is 0.0295 µM; in assay [2] it was 0.0809 µM. Moreover, in assay [2] (0.05 μM test compound), the inhibition at 0.05 µM is 76.9%.
On to `Cc1cc(F)cnc1-c1cc(N2CCC(NC(=O)CCS(C)(=O)=O)CC2)ncc1Cl` [Example A-144, N-[1-(5′-chloro-5-fluoro-3-methyl-2,4′-bipyridin-2′-yl)piperidin-4-yl]-3-(methylsulfonyl)propanamide], for which the IC50 in assay [1] (Mus musculus, MEF) is 0.0166 µM; in assay [2], 0.0298 µM. Besides, the inhibition at 0.05 µM in assay [2] (0.05 μM test compound) was determined as 91.3%.
`Cc1cccnc1-c1cc(N2[C@@H]3CC[C@H]2CN(C(=O)CC(C)(C)O)C3)ncc1Cl` [Example A-107, 1-[(1R,5S)-8-(5′-chloro-3-methyl-2,4′-bipyridin-2′-yl)-3,8-diazabicyclo[3.2.1]oct-3-yl]-3-hydroxy-3-methylbutan-1-one] yielded an IC50 in assay [1] (Mus musculus, MEF) of 0.0415 µM. In addition, in assay [2] (0.05 μM test compound), the inhibition at 0.05 µM amounted to 82.7%.
For the compound `Cc1cnc(-c2cc(N3CCN(C(=O)CO)CC3)ncc2Cl)c(C)c1` [Example A-102, 2-[4-(5′-chloro-3,5-dimethyl-2,4′-bipyridin-2′-yl)piperazin-1-yl]-2-oxoethanol], the IC50 worked out at 0.0601 µM in assay [1] (Mus musculus, MEF) and 0.0579 µM in assay [2]. Besides, the inhibition at 0.05 µM in assay [2] (0.05 μM test compound) was determined as 84%.
On the same counts, the results for `Cc1cccnc1-c1cc(N2CCC(C(=O)NCCc3nc4cccnc4n3C)CC2)ncc1Cl` [Example A-73, 1-(5′-chloro-3-methyl-2,4′-bipyridin-2′-yl)-N-[2-(3-methyl-3H-imidazo[4,5-b]pyridin-2-yl)ethyl]piperidine-4-carboxamide] are 0.0558 µM, 0.154 µM and 76.1%.
Taken in the same sequence, the figures for `COC(=O)N1CCN(c2cc(-c3ncc(C)cc3C)c(Cl)cn2)CC1` [Example A-101, methyl 4-(5′-chloro-3,5-dimethyl-2,4′-bipyridin-2′-yl)piperazine-1-carboxylate] were 0.0302 µM, 0.0724 µM and 89%.
On to `CN(C)CC(=O)NC1CCN(c2ccc(Cl)c(-c3ccccn3)n2)CC1` [Example A-129, N-(1-(3-chloro-[2,2′-bipyridin]-6-yl)piperidin-4-yl)-2-(dimethylamino)acetamide], for which the IC50 in assay [1] (Mus musculus, MEF) was 0.00812 µM; in assay [2], 0.0543 µM. In addition, the inhibition at 0.05 µM in assay [2] (0.05 μM test compound) was 88.4%.
Taken in the same sequence, the figures for `Cc1cccnc1-c1cc(N2CCC(C(=O)NC3(CO)CCCC3)CC2)ncc1Cl` [Example A-76, 1-(5′-chloro-3-methyl-2,4′-bipyridin-2′-yl)-N-[1-(hydroxymethyl)cyclopentyl]piperidine-4-carboxamide] were 0.0183 µM, 0.0258 µM and 91.6%.
For the compound “N-[(3-endo)-8-(5′-chloro-3-methyl-2,4′-bipyridin-2′-yl)-8-azabicyclo[3.2.1]oct-3-yl]methanesulfonamide [Example A-124]”, the IC50 in assay [1] was found to be 0.0253 µM; in assay [2], 0.1 µM. In addition, in assay [2] (0.05 μM test compound), the “Smo % inh. @ 0.05 μM” value was 79.9%.
On to `COC(=O)N1CCN(c2cc(-c3ncccc3C)c(Cl)cn2)CC1` [Example A-24, methyl 4-(5′-chloro-3-methyl-2,4′-bipyridin-2′-yl)piperazine-1-carboxylate], for which the IC50 in assay [1] (Mus musculus, MEF) is 0.126 µM; in assay [2] it was 0.243 µM. For the same compound, the inhibition at 0.05 µM in assay [2] (0.05 μM test compound) came to 69.3%.
Consider `Cc1cccnc1-c1cc(N2CCC(C(=O)NCC3(O)CCC3)CC2)ncc1Cl` [Example A-64, 1-(5′-chloro-3-methyl-2,4′-bipyridin-2′-yl)-N-[(1-hydroxycyclobutyl)methyl]piperidine-4-carboxamide], for which the IC50 in assay [1] (Mus musculus, MEF) came to 0.109 µM; in assay [2], 0.157 µM. Moreover, in assay [2] (0.05 μM test compound), the inhibition at 0.05 µM was 78.1%.
On the same counts, the results for `Cc1cccnc1-c1cc(N2CCC(C(=O)NCc3ncc[nH]3)CC2)ncc1Cl` [Example A-54, 1-(5′-chloro-3-methyl-2,4′-bipyridin-2′-yl)-N-(1H-imidazol-2-ylmethyl)piperidine-4-carboxamide] are 0.0554 µM, 0.0649 µM and 86.1%.
For `COCC(=O)N1CCN(c2cc(-c3ncccc3C)c(Cl)cn2)CC1` [Example A-28, 5′-chloro-2′-[4-(methoxyacetyl)piperazin-1-yl]-3-methyl-2,4′-bipyridine], the IC50 in assay [1] (Mus musculus, MEF) came to 0.146 µM; in assay [2] it was 0.212 µM. In addition, the inhibition at 0.05 µM in assay [2] (0.05 μM test compound) stood at 68.9%.
With `Cc1ccc(-c2nc(N3CCN(C(=O)CCS(C)(=O)=O)CC3)ccc2Cl)nc1` [Example A-147, 1-[4-(3-chloro-5′-methyl-2,2′-bipyridin-6-yl)piperazin-1-yl]-3-(methylsulfonyl)propan-1-one], in assay [1] (Mus musculus, MEF), the IC50 was determined as 0.0144 µM. Besides, the inhibition at 0.05 µM in assay [2] (0.05 μM test compound) came to 94.7%.
As to `Cc1cnc(-c2cc(N3CCC(NC(=O)CN(C)C)CC3)ncc2Cl)c(C)c1` [Example A-114, N-(1-(5′-chloro-3,5-dimethyl-[2,4′-bipyridin]-2′-yl)piperidin-4-yl)-2-(dimethylamino)acetamide], the IC50 in assay [1] (Mus musculus, MEF) turned out to be 0.00386 µM; in assay [2], 0.0192 µM. Besides, the inhibition at 0.05 µM in assay [2] (0.05 μM test compound) stood at 94.5%.
As for `Cc1cccnc1-c1cc(N2CCC(C(=O)N[C@H]3CCN(S(C)(=O)=O)C3)CC2)ncc1Cl` [Example A-60, 1-(5′-chloro-3-methyl-2,4′-bipyridin-2′-yl)-N-[(3S)-1-(methylsulfonyl)pyrrolidin-3-yl]piperidine-4-carboxamide], the IC50 in assay [1] (Mus musculus, MEF) was 0.0574 µM; in assay [2], 0.067 µM. Also, the inhibition at 0.05 µM in assay [2] (0.05 μM test compound) was found to be 83.8%.
On the same counts, the results for `Cc1cnc(-c2cc(N3CCC(NC(=O)CO)CC3)ncc2Cl)c(C)c1` [Example A-113, N-[1-(5′-chloro-3,5-dimethyl-2,4′-bipyridin-2′-yl)piperidin-4-yl]-2-hydroxyacetamide] are 0.0117 µM, 0.0556 µM and 84%.
With `Cc1cccnc1-c1cc(N2CCC(C(=O)N3CCN(c4ccc(O)nn4)CC3)CC2)ncc1Cl` [Example A-82, 6-(4-{[1-(5′-chloro-3-methyl-2,4′-bipyridin-2′-yl)piperidin-4-yl]carbonyl}piperazin-1-yl)pyridazin-3-ol], the IC50 in assay [1] (Mus musculus, MEF) stood at 0.0388 µM; in assay [2] it was 0.0392 µM. Also, the inhibition at 0.05 µM in assay [2] (0.05 μM test compound) came out at 92.6%.
For the compound `COCCS(=O)(=O)N1CCN(c2cc(-c3ncc(C)cc3C)ccn2)CC1` [Example A-155, 2′-{4-[(2-methoxyethyl)sulfonyl]piperazin-1-yl}-3,5-dimethyl-2,4′-bipyridine], the IC50 was 0.045 µM in assay [1] (Mus musculus, MEF) and 0.097 µM in assay [2]. In addition, the inhibition at 0.05 µM in assay [2] (0.05 μM test compound) turned out to be 77.1%.
Taken in the same sequence, the figures for `Cc1cccnc1-c1cc(N2CCN(C(=O)CO)CC2)ncc1Cl` [Example A-25, 2-[4-(5′-chloro-3-methyl-2,4′-bipyridin-2′-yl)piperazin-1-yl]-2-oxoethanol] were 0.197 µM, 0.239 µM and 72.1%.
With `Cc1cccnc1-c1cc(N2CCN(c3ncc(Br)cn3)CC2)ncc1Cl` [Example A-46, 2′-[4-(5-bromopyrimidin-2-yl)piperazin-1-yl]-5′-chloro-3-methyl-2,4′-bipyridine], in assay [1] (Mus musculus, MEF), the midpoint of inhibition, the IC50, lay at 0.0211 µM. In addition, the inhibition at 0.05 µM in assay [2] (0.05 μM test compound) was 97.6%.

In general, IC50 refers to the concentration at which inhibition is half-maximal. High values mean weaker potency in that assay, low ones greater potency in that assay.
